Measurements taken from US5591741A, “Fungicidal spiroheterocyclic derivatives” (American Cyanamid Company, priority 1993, dated 1997).

Key:
[1] = system: Pyricularia oryzae; type: in vivo; conditions: rice seedlings, direct therapeutic foliar spray, 600 ppm, 4-5 days
[2] = system: Erysiphe graminis f.sp. hordei; test: Activity against barley powdery mildew, direct therapeutic (EGT); type: in vivo; conditions: direct therapeutic foliar spray, 600 ppm, up to 7 days
Outline: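 Barley seedlings (cv. Golden Promise, single-leaf stage) were dusted with mildew conidia one day before a therapeutic foliar spray of 600 ppm compound. Plants were kept at 18 °C and 40% humidity for up to 7 days, and sporulating leaf area was rated against untreated or diluent-sprayed controls.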

[3] = system: Rhizoctonia solani; test: Activity against Rhizoctonia in-vitro (RSI); type: cell-based; conditions: 10 ppm, 10 days, 20° C., mycelial growth
Outline: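 R. solani mycelial fragments (5×10^4/ml) in half-strength Potato Dextrose Broth with compound added from acetone to 10 ppm final. Mycelial growth assessed after 10 days at 20° C, rated against untreated or diluent control.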

[4] = system: Plasmopara viticola; test: Antisporulant activity against vine downy mildew (PVA); type: in vivo; conditions: vine leaves, antisporulant foliar spray, 600 ppm, 750 l/ha
Outline: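 Cabernet Sauvignon vines (~8 cm) inoculated on lower leaf surfaces with 5×10^4 zoosporangia/ml, held 24 h at 21° C high humidity then 24 h glasshouse. Infected leaves sprayed underside with 600 ppm compound in 1:1 water/acetone, 0.04% Tween 20, 750 l/ha; 96 h glasshouse, 24 h humidity. Sporulating leaf area rated versus control.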

[5] = system: Alternaria solani; test: Activity against tomato early blight (AS); type: in vivo; conditions: Table VI; tomato seedlings, contact prophylactic foliar spray, 4 days
Outline: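 Foliar contact prophylactic spray on tomato seedlings (cv Outdoor Girl, second true leaf expanded) in acetone/water 50:50 with 0.04% Tween 20; 24 h at 20° C, 40% R.H., then inoculation with 10^4 spores/ml A. solani conidia. Kept moist at 21° C; lesion cover rated 4 days post-inoculation against untreated or diluent-sprayed controls.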

[6] = system: Venturia inaequalis; test: Activity against apple scab in-vitro (VII); type: cell-based; conditions: 10 ppm, 10 days, 20° C., mycelial growth
Outline: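 Compound in acetone was tested at 10 ppm final in half-strength Potato Dextrose Broth inoculated with V. inaequalis mycelial fragments and spores at 5×10^4 propagules/ml. After 10 days at 20° C, mycelial growth was rated against untreated or diluent controls.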

[7] = system: Pseudocercosporella herpotrichoides; test: Activity against wheat eyespot in-vitro (PHI); type: cell-based; conditions: 10 ppm, 10 days, 20° C., mycelial growth
Outline: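 P. herpotrichoides mycelial fragments (5×10^4/ml) grown in half-strength PDB with compound at 10 ppm final, added from acetone. Incubated 10 days at 20 °C; mycelial growth rated against untreated or diluent controls.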

[8] = system: Botrytis cinerea; test: Direct protectant activity against broad bean grey mould (BCB); type: in vivo; conditions: direct protectant foliar spray, 600 ppm, 4 days
Outline: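 Broad bean plants (cv The Sutton, two leaf pairs) sprayed on upper leaf surfaces at 600 ppm, then inoculated 24 h later with 10^6 conidia/ml. Kept 4 days at 22 °C, high humidity; disease control rated from % leaf area with lesions against untreated or diluent controls.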

[9] = system: Leptosphaeria nodorum; test: Activity against wheat leafspot (LN); type: in vivo; conditions: direct therapeutic foliar spray, 600 ppm, 6-8 days
Outline: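 Wheat cv Norman at single-leaf stage spray-inoculated with 1.5×10^6 conidia/ml, held 24 h at high humidity, then sprayed therapeutically with test compound at 600 ppm. Kept 6-8 days at 22° C, 70% humidity; lesion density per leaf rated against untreated or diluent-sprayed controls.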

[10] = system: Erysiphe graminis f.sp. hordei; test: Direct protectant activity against barley powdery mildew (EGP); type: in vivo; conditions: direct protectant foliar spray, 8 days
Outline: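 Barley seedlings (cv Golden Promise, single-leaf stage) were foliar-sprayed, held 24 h at 18 °C/40% RH, then dusted with mildew conidia. After 8 days at 18 °C/40% RH, sporulating leaf area was scored as a rating against untreated or diluent-sprayed controls.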

[11] = system: Phytophthora infestans; type: in vivo; conditions: tomato, direct protectant foliar spray

Row | Structure (SMILES) | disease control rating PO [1] | disease control rating EGT [2] | disease control rating RSI [3] | disease control rating PVA [4] | disease control rating AS [5] | disease control rating VII [6] | disease control rating PHI [7] | disease control rating BCB [8] | disease control rating LN [9] | disease control rating EGP [10] | disease control rating PIP [11]
1 | CC(C)(C)C1CCC2(CC1)CC(NCCC1CCCCC1)CO2 (stereo not shown) [Compound 100] | 0 (less than 50% disease control) | 2 (greater than 80% disease control) | 1 (about 50-80% disease control) | 0 (less than 50% disease control) | 0 (less than 50% disease control) | 2 (greater than 80% disease control) | 1 (about 50-80% disease control) | 2 (greater than 80% disease control) | 0 (less than 50% disease control) | 2 (greater than 80% disease control) | 2 (greater than 80% disease control)
2 | CCCCCC(C)NC1COC2(CCC(C(C)(C)C)CC2)C1 (stereo not shown) [Compound 101] | 0 (less than 50% disease control) | 2 (greater than 80% disease control) | 0 (less than 50% disease control) | 0 (less than 50% disease control) | 0 (less than 50% disease control) | 2 (greater than 80% disease control) | 1 (about 50-80% disease control) | 2 (greater than 80% disease control) | 0 (less than 50% disease control) | 2 (greater than 80% disease control) | 0 (less than 50% disease control)
3 | CCCCC(CC)NC1COC2(CCC(C(C)(C)C)CC2)C1 (stereo not shown) [Compound 102] | 0 (less than 50% disease control) | 2 (greater than 80% disease control) | 0 (less than 50% disease control) | 0 (less than 50% disease control) | 0 (less than 50% disease control) | 2 (greater than 80% disease control) | 0 (less than 50% disease control) | 1 (about 50-80% disease control) | 0 (less than 50% disease control) | 2 (greater than 80% disease control) | 0 (less than 50% disease control)
4 | C=CCN(CC=C)C1COC2(CCC(C(C)(C)C)CC2)C1 (stereo not shown) [Compound 103] | 0 (less than 50% disease control) | 2 (greater than 80% disease control) | 0 (less than 50% disease control) | 0 (less than 50% disease control) | 0 (less than 50% disease control) | 1 (about 50-80% disease control) | 0 (less than 50% disease control) | 2 (greater than 80% disease control) | 0 (less than 50% disease control) | 2 (greater than 80% disease control) | 2 (greater than 80% disease control)
5 | CC(C)(C)C1CCC2(CC1)CC(NC1CCCCCC1)CO2 (stereo not shown) [Compound 104] | 0 (less than 50% disease control) | 2 (greater than 80% disease control) | 0 (less than 50% disease control) | 0 (less than 50% disease control) | 0 (less than 50% disease control) | 1 (about 50-80% disease control) | 0 (less than 50% disease control) | 0 (less than 50% disease control) | 1 (about 50-80% disease control) | 2 (greater than 80% disease control) | 2 (greater than 80% disease control)
6 | CCCCCCC(C)NC1COC2(CCC(C(C)(C)C)CC2)C1 (stereo not shown) [Compound 105] | 0 (less than 50% disease control) | 2 (greater than 80% disease control) | 2 (greater than 80% disease control) | 0 (less than 50% disease control) | 0 (less than 50% disease control) | 2 (greater than 80% disease control) | 2 (greater than 80% disease control) | 1 (about 50-80% disease control) | 1 (about 50-80% disease control) | 2 (greater than 80% disease control) | 0 (less than 50% disease control)
7 | CC(C)(C)CC(C)(C)NC1COC2(CCC(C(C)(C)C)CC2)C1 (stereo not shown) [Compound 106] | 0 (less than 50% disease control) | 2 (greater than 80% disease control) | 0 (less than 50% disease control) | 0 (less than 50% disease control) | 0 (less than 50% disease control) | 1 (about 50-80% disease control) | 0 (less than 50% disease control) | 0 (less than 50% disease control) | 0 (less than 50% disease control) | 2 (greater than 80% disease control) | 2 (greater than 80% disease control)
8 | CC(C)CCCC(C)NC1COC2(CCC(C(C)(C)C)CC2)C1 (stereo not shown) [Compound 107] | 0 (less than 50% disease control) | 2 (greater than 80% disease control) | 1 (about 50-80% disease control) | 0 (less than 50% disease control) | 0 (less than 50% disease control) | 1 (about 50-80% disease control) | 1 (about 50-80% disease control) | 0 (less than 50% disease control) | 0 (less than 50% disease control) | 2 (greater than 80% disease control) | 2 (greater than 80% disease control)
